Structures are written as SMILES.

T1 sequence (Q8NER1 whole entry): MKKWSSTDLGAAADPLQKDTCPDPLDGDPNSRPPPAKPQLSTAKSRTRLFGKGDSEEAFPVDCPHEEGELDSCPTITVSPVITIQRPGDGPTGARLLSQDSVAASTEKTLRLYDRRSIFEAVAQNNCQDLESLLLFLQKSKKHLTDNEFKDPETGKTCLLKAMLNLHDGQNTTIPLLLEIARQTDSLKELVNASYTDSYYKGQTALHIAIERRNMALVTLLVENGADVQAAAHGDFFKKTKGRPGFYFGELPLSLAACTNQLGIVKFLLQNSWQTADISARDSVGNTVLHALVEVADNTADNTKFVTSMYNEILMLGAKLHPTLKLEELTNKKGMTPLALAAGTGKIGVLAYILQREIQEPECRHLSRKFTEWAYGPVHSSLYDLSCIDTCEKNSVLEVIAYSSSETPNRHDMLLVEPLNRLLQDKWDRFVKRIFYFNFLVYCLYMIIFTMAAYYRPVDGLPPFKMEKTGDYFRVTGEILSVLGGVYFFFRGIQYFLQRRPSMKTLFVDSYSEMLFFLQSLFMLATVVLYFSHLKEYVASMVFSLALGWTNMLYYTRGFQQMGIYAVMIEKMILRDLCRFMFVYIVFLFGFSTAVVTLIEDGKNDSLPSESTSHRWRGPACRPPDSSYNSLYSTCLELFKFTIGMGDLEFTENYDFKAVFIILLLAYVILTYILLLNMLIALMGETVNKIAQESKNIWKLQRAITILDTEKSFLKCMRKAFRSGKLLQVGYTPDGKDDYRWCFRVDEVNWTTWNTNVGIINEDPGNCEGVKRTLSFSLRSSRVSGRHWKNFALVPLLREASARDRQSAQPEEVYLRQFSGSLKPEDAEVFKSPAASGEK

The assay addresses T1, human TRPV1 (Homo sapiens, UniProt Q8NER1).
T1 construct: expressed in transfected cells; host or cells: CHO-K1
The experiment in a line: Measurement of capsaicin-induced Ca influx in human TRPV1 transformed CHO cell line using FDSS-6000. Format: cell-based. The note with it: concentration at which the capsaicin concentration-reaction curve is shifted two times to the right, human TRPV1 transformed CHO cells.
Turning to `CCC(F)(F)C(=O)N1CC/C(=C\C(=O)Nc2cccc3c2CC(O)CC3)c2ccc(C(F)(F)F)cc21` (centres unmarked) [Example 95, (E)-2-(1-(2,2-difluorobutanoyl)-7-trifluoromethyl-2,3-dihydroquinolin-4(1H)-ylidene)-N-(7-hydroxy-5,6,7,8-tetrahydronaphthalen-1-yl)acetamide], the “A2 VALUE” is “A (compounds of the present invention having an A2 value of less than 100 nM are represented by A)”.
`O=C(/C=C1\CCCOc2cc(C(F)(F)F)ccc21)Nc1cccc2c1CC(O)C(O)C2` (stereo not drawn) [Example 66, (E)-2-(8-trifluoromethyl-3,4-dihydrobenzo[b]oxepin-5-(2H)-ylidene)-N-(cis-6,7-dihydroxy-5,6,7,8-tetrahydronaphthalen-1-yl)acetamide]: the “A2 VALUE” is listed as “A (compounds of the present invention having an A2 value of less than 100 nM are represented by A)”.
The same measure for `O=C(/C=C1\CCOc2cc(C(F)(F)F)ccc21)Nc1cccc2ccc(O)cc12` [Example 120, (E)-N-(7-hydroxynaphthalen-1-yl)-2-(7-trifluoromethyl-chroman-4-ylidene)acetamide]: “A (compounds of the present invention having an A2 value of less than 100 nM are represented by A)”.
Consider `COc1cc(NC(=O)/C=C2\CCCOc3cc(C(F)(F)F)ccc32)cc(C(F)(F)F)c1` [Example 135, (E)-2-(8-trifluoromethyl-3,4-dihydrobenzo[b]oxepin-5(2H)-ylidene)-N-(3-methoxy-5-(trifluoromethyl)phenyl)acetamide], for which the “A2 VALUE” is “A (compounds of the present invention having an A2 value of less than 100 nM are represented by A)”.
As to `CC(C)c1ccc2c(c1)OCC/C2=C\C(=O)Nc1cccc2c1CC(O)CC2` (centres unmarked) [Example 206, (E)-2-(7-isopropyl-chroman-4-ylidene)-N-(7-hydroxy-5,6,7,8-tetrahydronaphthalen-1-yl)acetamide], the “A2 VALUE” is listed as “A (compounds of the present invention having an A2 value of less than 100 nM are represented by A)”.
Next, `O=C(/C=C1\CCOc2ccccc21)Nc1cccc2cnccc12` [Example 2, (E)-2-(chroman-4-ylidene)-N-(isoquinolin-5-yl)acetamide]: “B (compounds having an A2 value of 100 nM or more are represented by B)”; `CC(C)(C)c1ccc2c(c1)OCC/C2=C\C(=O)Nc1cccc2cnccc12` [Example 4, (E)-2-(7-tert-butyl-chroman-4-ylidene)-N-(isoquinolin-5-yl)acetamide]: “A (compounds of the present invention having an A2 value of less than 100 nM are represented by A)”.
Next, `O=C(/C=C1\CCN(c2ncc(CO)cc2Cl)c2cc(C(F)(F)F)ccc21)Nc1cccc2c1CC(O)CC2` (centres unmarked) [Example 200, (E)-2-(1-(3-chloro-5-hydroxymethyl-pyridin-2-yl)-7-trifluoromethyl-2,3-dihydroquinolin-4(1H)-ylidene)-N-(7-hydroxy-5,6,7,8-tetrahydronaphthalen-1-yl)acetamide]: “A (compounds of the present invention having an A2 value of less than 100 nM are represented by A)”; `CC1(C)C/C(=C\C(=O)Nc2cccc3c2CC(O)CC3)c2ccc(C(F)(F)F)cc2O1` (centres unmarked) [Example 242, (E)-2-(7-trifluoromethyl-2,2-dimethylchroman-4-ylidene)-N-(7-hydroxy-5,6,7,8-tetrahydronaphthalen-1-yl)acetamide]: “A (compounds of the present invention having an A2 value of less than 100 nM are represented by A)”.
Next, `O=C(C=C1COCc2cc(C(F)(F)F)ccc21)Nc1cccc2c1CC(O)CC2` (stereo in doubt) [Example 237, (E)-2-(7-trifluoromethyl-isochroman-4-ylidene)-N-(7-hydroxy-5,6,7,8-tetrahydronaphthalen-1-yl)acetamide]: “A (compounds of the present invention having an A2 value of less than 100 nM are represented by A)”.
Take `O=C(/C=C1\CCOc2cc(C(F)(F)F)ccc21)Nc1cccc2c1CC(O)CC2` (centres unmarked) [Example 72, (E)-2-(7-trifluoromethyl-chroman-4-ylidene)-N-(7-hydroxy-5,6,7,8-tetrahydronaphthalen-1-yl)acetamide]: the “A2 VALUE” is “A (compounds of the present invention having an A2 value of less than 100 nM are represented by A)”.
The same measure for `CC(C)CCC(=O)N1CC/C(=C\C(=O)Nc2ccc3cccnc3c2)c2ccc(C(F)(F)F)cc21` [Example 78, (E)-2-(1-(4-methylpentanoyl)-7-trifluoromethyl-2,3-dihydroquinolin-4(1H)-ylidene)-N-(quinolin-7-yl)acetamide]: “A (compounds of the present invention having an A2 value of less than 100 nM are represented by A)”; for `O=C(/C=C1\CCCOc2cc(C(F)(F)F)ccc21)Nc1ccc2[nH]ccc2c1` [Example 138, (E)-2-(8-trifluoromethyl-3,4-dihydrobenzo[b]oxepin-5(2H)-ylidene)-N-(indol-5-yl)acetamide]: “A (compounds of the present invention having an A2 value of less than 100 nM are represented by A)”.
Turning to `CS(=O)(=O)O.O=C(/C=C1\CCCOc2cc(C(F)(F)F)ccc21)Nc1ccc2cccnc2c1` [Example 127, (E)-2-(8-trifluoromethyl-3,4-dihydrobenzo[b]oxepin-5(2H)-ylidene)-N-(quinolin-7-yl)acetamide methanesulfonate], the “A2 VALUE” is “A (compounds of the present invention having an A2 value of less than 100 nM are represented by A)”.
Turning to `CC(=O)OC1CCc2c(NC(=O)/C=C3\CCCOc4cc(C(F)(F)F)ccc43)cccc21` (centres unmarked) [Example 161, (E)-2-(8-trifluoromethyl-3,4-dihydrobenzo[b]oxepin-5(2H)-ylidene)-N-(indan-1-acetoxy-4-yl)acetamide], the “A2 VALUE” was “B (compounds having an A2 value of 100 nM or more are represented by B)”.
The same measure for `O=C(/C=C1\CCN(C(=O)C2(O)CC2)c2cc(C(F)(F)F)ccc21)Nc1cccc2c1CC(O)CC2` (centres unmarked) [Example 112, (E)-2-(1-(1-hydroxycyclopropanecarbonyl)-7-trifluoromethyl-2,3-dihydroquinolin-4(1H)-ylidene)-N-(7-hydroxy-5,6,7,8-tetrahydronaphthalen-1-yl)acetamide]: “B (compounds having an A2 value of 100 nM or more are represented by B)”; for `O=C(/C=C1\CCCOc2cc(C(F)(F)F)ccc21)Nc1ccc2c(ccn2CCO)c1` [Example 164]: “A (compounds of the present invention having an A2 value of less than 100 nM are represented by A)”.
Next, `O=C(/C=C1\CCOc2cc(OC(F)(F)F)ccc21)Nc1cccc2c1CC(O)CC2` (centres unmarked) [Example 210, (E)-2-(7-trifluoromethoxy-chroman-4-ylidene)-N-(7-hydroxy-5,6,7,8-tetrahydronaphthalen-1-yl)acetamide]: “A (compounds of the present invention having an A2 value of less than 100 nM are represented by A)”.
Next, `O=C(/C=C1\CCCOc2cc(C(F)(F)F)ccc21)Nc1ccc2ccc(=O)[nH]c2c1` [Example 134, (E)-2-(8-trifluoromethyl-3,4-dihydrobenzo[b]oxepin-5(2H)-ylidene)-N-(2-quinolon-7-yl)acetamide]: “A (compounds of the present invention having an A2 value of less than 100 nM are represented by A)”.
For the molecule `O=C(/C=C1\CCCOc2cc(C(F)(F)F)ccc21)Nc1cccc2cc(O)ccc12` [Example 126, (E)-N-(6-hydroxynaphthalen-1-yl)-2-(8-trifluoromethyl-3,4-dihydrobenzo[b]oxepin-5(2H)-ylidene)acetamide], the “A2 VALUE” is on record as “A (compounds of the present invention having an A2 value of less than 100 nM are represented by A)”.
With `O=C(/C=C1\CCN(C(=O)C2CCC2)c2cc(C(F)(F)F)ccc21)Nc1cccc2c1CC(O)CC2` (centres unmarked) [Example 84, (E)-2-(1-cyclobutanecarbonyl-7-trifluoromethyl-2,3-dihydroquinolin-4(1H)-ylidene)-N-(7-hydroxy-5,6,7,8-tetrahydronaphthalen-1-yl)acetamide], the “A2 VALUE” is given as “A (compounds of the present invention having an A2 value of less than 100 nM are represented by A)”.
As for `O=C(/C=C1\CCCOc2cc(C(F)(F)F)ccc21)Nc1cccc2c1CC1OC1C2` (centres unmarked) [Example 169, (E)-2-(8-trifluoromethyl-3,4-dihydrobenzo[b]oxepin-5(2H)-ylidene)-N-(1a,2,7,7a-tetrahydronaphtho[b]oxiren-3-yl)acetamide], the “A2 VALUE” was “A (compounds of the present invention having an A2 value of less than 100 nM are represented by A)”.
Regarding `O=C(/C=C1\CCCOc2cc(C(F)(F)F)ccc21)Nc1ccc(C(F)(F)F)cc1` [Example 15, (E)-2-(8-trifluoromethyl-3,4-dihydrobenzo[b]oxepin-5(2H)-ylidene)-N-(4-trifluoromethylphenyl)acetamide], the “A2 VALUE” is “B (compounds having an A2 value of 100 nM or more are represented by B)”.
The same measure for `O=C(/C=C1\CCCOc2cc(C(F)(F)F)ccc21)Nc1ccc2ccc(O)cc2c1` [Example 128, (E)-2-(8-trifluoromethyl-3,4-dihydrobenzo[b]oxepin-5(2H)-ylidene)-N-(7-hydroxynaphthalen-2-yl)acetamide]: “A (compounds of the present invention having an A2 value of less than 100 nM are represented by A)”; for `O=C(/C=C1\CCN(C(=O)C2CC2)c2cc(C(F)(F)F)ccc21)Nc1cccc2c1CC(O)CC2` (centres unmarked) [Example 105, (E)-2-(7-trifluoromethyl-2,3-dihydro-1-cyclopropanecarbonylquinolin-4(1H)-ylidene)-N-(7-hydroxy-5,6,7,8-tetrahydronaphthalen-1-yl)acetamide]: “A (compounds of the present invention having an A2 value of less than 100 nM are represented by A)”.
Turning to `CC1(C)C/C(=C\C(=O)Nc2cccc3c2CC(O)CC3)c2ccc(C(F)(F)F)cc2O1` (centres unmarked) [Example 241, (E)-2-(7-trifluoromethyl-2,2-dimethylchroman-4-ylidene)-N-(7-hydroxy-5,6,7,8-tetrahydronaphthalen-1-yl)acetamide], the “A2 VALUE” is on record as “A (compounds of the present invention having an A2 value of less than 100 nM are represented by A)”.

(Values after patent publication US7910751B2, “Heterocyclidene acetamide derivative” (Mochida Pharmaceutical Co., Ltd., priority 2005, dated 2011).)
